Where two headings read alike, the source gives them in different places.
Legend:
[1] = target: T1, DYRK1A (Homo sapiens, UniProt Q13627); experiment: SPHINKS assay: TAU (Thr212) phosphorylation by induced DYRK1A in HEK293 cells, western blot; format: cell-based; parameters: expressed in transfected cells; host or cells: Flp-In/T-REx HEK293
Method: TAU was expressed in a fused form with the destabilization domain FKBP12 (DD), which causes degradation of DD fusion proteins in the absence of a small molecule, Shield-1 (ref. [26]).
To distinguish kinase inhibition at the transitional state from that after maturation, we set up two types of time courses. […] Following additional incubation with Shield-1 for 2 h, total cell lysates were harvested, then subjected to western blot.
Cells were then cultured 24 h later in the presence of 1 μg ml^−1 of doxycycline (Nacalai Tesque) for 16 h, then treated with 1 μM of Shield-1 (Clontech, Takara Bio) for 2 h. Small molecules from our chemical library were diluted in 1 ml of DMEM and 1% FBS, then administered into the cells at a final concentration of 10 μM (0.1% DMSO), as illustrated in Fig. 1a. Total cell lysates were prepared with SDS-urea buffer (50 mM Tris-HCl, pH 7.0, 1% SDS, 4 M urea, 10% glycerol, 20 mM dithiothreitol, 0.5 mg ml^−1 BSA), then analysed with SDS–polyacrylamide gel electrophoresis (SDS–PAGE) followed by western blot analysis using antibodies against phospho-TAU (pT212) (1/3,000) and total TAU (1/3,000) proteins (Supplementary Fig. 14).
Category Parameter Description
Assay Type of assay Cell-based
Measurement Detection of TAU phosphorylation mediated by
Key reagents Rabbit polyclonal antibody against phosphorylated
Mouse monoclonal antibody against TAU (TAU-5)
ProteoTuner Shield System (Clontech Laboratories)
pcDNA5/FRT/TO vector and Flp-In/T-REx293 cells
Assay protocol Described in the sections "Methods" and "Results"
Library Library size Approximately 200
Library composition Synthetic chemical compounds, including derivatives
Source Laboratory of Chemical Bioscience, Institute of
Biomaterials and Bioengineering, Tokyo Medical and
Screen Format 6-well plates (FALCON) coated with polyethylenimine
Screen Concentration(s) tested 10 µM (0.1% DMSO) in DMEM with 1%FBS
Reagent/ compound dispensing system Manual
Detection instrument and software Western blot using primary anti-phospho- TAU and […]
Chemiluminescence of HRP was detected by the […]

[2] = target: T2, human DYRK2 (Homo sapiens, UniProt Q92630); experiment: RI-in vitro kinase assay with DYRKtide; format: biochemical; conditions: DYRKtide substrate; Fig. 8b, n=4; read-out: IC50, kinase activity of recombinant DYRK2
T2 construct: His-tagged full-length human DYRK2 recombinant proteins; His; purchased Millipore

[3] = target: T3, 3xFLAG-DYRK1A / CDC37-nanoKAZ (Homo sapiens, UniProt Q13627); parameters: expressed in transfected cells; host or cells: 293T cells stably expressing CDC37-nanoKAZ; method as in PMID 26234946; conditions: cited from earlier work
[4] = tested on: transitional intermediate of Drosophila DYRK2; parameters: method as in PMID 17188038; conditions: cited from earlier work
[5] = tested on: mature Drosophila DYRK2; parameters: method as in PMID 17188038; conditions: cited from earlier work
[6] = target: GST-DYRK1A-TS WT (Homo sapiens, UniProt Q13627); experiment: biochemical
Method: (§4) For the in vitro kinase assay, 2 μl (bed vol.) of the resin was incubated in a total volume of 25 μl of AR buffer containing 0.1 mg ml^−1 of BSA, 100 μM of ATP, 50 μM of DYRKtide peptide and the indicated concentrations of the small molecules, for 2 h at 37 °C. The consumption of ATP was measured with ADP-Glo Kinase Assay kit.

[7] = target: T4, human DYRK1B (Homo sapiens, UniProt Q9Y463); experiment: RI-in vitro kinase assay with DYRKtide; format: biochemical
T4 construct: GST-tagged full-length human DYRK1B recombinant proteins; GST; purchased Life Technologies
Method: (§1) The RI-in vitro kinase assay was performed as described previously, with some modifications. […] GST-tagged full-length human DYRK1B recombinant proteins and His-tagged full-length human DYRK2 recombinant proteins were obtained from Life Technologies and Millipore, respectively. The kinase reaction was performed in a reaction mixture containing serially diluted inhibitors, 10 mM MOPS-KOH (pH 7.0), 10 mM magnesium acetate, 200 μM EDTA, 1 μM ATP, 0.1–0.4 μCi [γ-^32P]ATP, 5 μM DYRKtide and 0.1–1 μg recombinant kinase, for a final volume of 25 μl. The final concentration of DMSO was adjusted to 1%, regardless of the inhibitor concentration. The reaction mixture was incubated at 30 °C for 10 min and phosphoric acid (final 5%) was then added to stop the reaction. We then dispensed 25 μl of the reaction mixture onto P81, a phosphocellulose membrane (Whatman, GE Healthcare), and washed four times in 5% phosphoric acid. Cherenkov light from the incorporated ^32P was measured using a liquid scintillation counter. The kinase assay conditions, including the incubation period and the concentration of the kinases and substrates, were optimized to maintain linearity during the incubation. The net radioactivity was determined by subtracting the background count from the reaction mixture without kinase, and the data were expressed as a percentage of the control sample containing the solvent.

[8] = target: GST-DYRK1A-TS Y319E mutant (Homo sapiens, UniProt Q13627, Y319E); experiment: biochemical; conditions: ATP 100 μM
Method: The cells were cultured with IPTG (final 1 mM) for 24 h at 6 °C, then lysed with GET buffer (20 mM HEPES-KOH, pH 8.0, 150 mM NaCl, 1 mM EDTA, 2 mM dithiothreitol, 10% glycerol, 0.5% Empigen BB, 0.5% Triton X-100). Clarified cell lysates were loaded onto a Strep-Tactin Sepharose column (IBA) and the bound proteins were then eluted with GET buffer containing 2.5 mM desthiobiotin (IBA) and 1 mg ml^−1 BSA. The eluates were subsequently applied to GST-Accept resin (Nacalai Tesque). The resin was washed extensively, first with GET buffer, then with AR buffer (5 mM MOPS, pH7.2, 2.5 mM β-glycerol-phosphate, 5 mM MgCl2, 1 mM EGTA, 0.4 mM EDTA, 2 mM tris(2-carboxyethyl)phosphine). […] We then added 5 μl of 2 mg ml^−1 BSA to the suspension (final concentration of 0.1 mg ml^−1), followed by incubation at 37 °C for 30 min. […] The bound proteins were eluted with SDS-urea buffer, then analysed with SDS–PAGE followed by western blot (Supplementary Fig. 14).
The band intensities were measured using the ChemiDoc MP Imaging System (Bio-Rad). In Fig. 6d,e, the relative activity of the phosphorylation was calculated from the ATP-dependent increase in the intensity of the p-Ser97 and p-Tyr signals by subtracting the band intensity in the absence of ATP from that in the presence of ATP.

[9] = target: T5, FLAG-DYRK1A (Homo sapiens, UniProt Q13627); experiment: 2A peptide bicistronic FLAG-DYRK1A/HA-EGFP expression in HEK293 cells, western blot; format: cell-based
T5 construct: F2A peptide (remnant left on the upstream protein after ribosome skipping) (C); expressed in transfected cells; host or cells: HEK293 (Flp-In/T-REx), vector stably integrated
Method: After incubation for 5 h, total cell lysates were subjected to SDS–PAGE followed by western blot analysis using the corresponding antibodies against FLAG, HA and GAPDH. Representative data from the pentaplicate experiments are shown. […] Representative data from the triplicate experiments are shown. […] Total cell lysates were subjected to SDS–PAGE followed by western blot analysis. Representative data from the triplicate experiments are shown.

[10] = target: T6, human DYRK1A kinase domain (Homo sapiens, UniProt Q13627); experiment: RI-in vitro kinase assay with DYRKtide; format: biochemical; conditions: for IC50: DYRKtide substrate
T6 construct: His-tagged human DYRK1A kinase domain (residues 127–485) was produced in E. coli; His; made in house; host or cells: E. coli
Method: as §1
The amount of incorporated ^32P was calculated from the standard line. The Km, Ki and Vmax values were calculated with Prism5 software (GraphPad Software) using the competitive inhibition model.

[11] = target: T1, DYRK1A; conditions: PURExpress
Method: The PURExpress kit (New England Biolabs) was employed. DYRK1A was expressed at 37 °C for 40 min in a 12.5-μl reaction mixture containing 30 ng of pET28a(+)-FLAG-DYRK1A. […] For immunoprecipitation, 100 μl of PBS containing 0.5% Empigen BB, 0.5 mg ml^−1 BSA and 5 mM EDTA was added into the reaction mixture, then incubated with anti-FLAG (M2) beads at 4 °C for 6 h. The samples were prepared with an SDS-urea buffer, then analysed with SDS–PAGE followed by western blot (Supplementary Fig. 14). The band intensities were measured using the LAS-3000 (Fujifilm) and Multi Gauge software (Fujifilm).

[12] = target: T1, DYRK1A; conditions: DYRKtide, 100 μM ATP; up to 32 μM compound
Method: For the in vitro kinase assay, 0.5 μl of the reaction mixture was incubated in a total volume of 25 μl of AR buffer containing 0.1 mg ml^−1 of BSA, 100 μM of ATP, 50 μM of DYRKtide peptide (Anaspec) and the indicated concentrations of the small molecules for 2 h at 37 °C. The consumption of ATP was measured with ADP-Glo Kinase Assay kit (Promega Corporation).

[13] = target: GST-DYRK1A-TS Y319E (Homo sapiens, UniProt Q13627, Y319E); experiment: biochemical
Method: as §4

[14] = target: T3, 3xFLAG-DYRK1A / CDC37-nanoKAZ; conditions: 24 h treatment; dose-dependent; 293T
Method: The wells were wash three times with ice-cold HENG buffer and then a luminescence assay was performed. […] The luminescence intensity was recorded at 0.1 s intervals for 10 s or 10 min. […] The relative amount of protein bound on the well was estimated from the absorbance.

[15] = tested on: p-Ser97 of FLAG-DYRK1A; experiment: p-Ser97 signal of FLAG-DYRK1A in HEK293 cells treated with phosphatase inhibitors; format: cell-based; conditions: HEK293, with doxycycline 8 h
Source text: blotanalysisusing antibodies against p- Ser97 and FLAG. If Ser97 autophosphorylation were mediated by an intermolecular mechanism, then Ser97 of the kinase- dead K188R mutant would be phosphorylated when expressed in the presence of DD-FLAG-DYRK1A. However, in spite of the excess amount of DD- FLAG-DYRK1A, the phosphorylation of Ser97 in the kinase- dead mutant didnot increase compared toresults obtainedin the absence of DD- FLAG-DYRK1A.
Representative data from the triplicate experiments is shown.
(b) HEK293 cells harbouring the empty vector or the expression vector of DD -FLAG-DYRK1A with the bicistronic expression cassette of the kinase- dead FLAG- DYRK1A (K188R) and EGFP were incubated with Shield- 1 at the indicated concentrations for 16 h. After accumulation of DD- FLAG-DYRK1A, FLAG- DYRK1A (K188R) was expressed for 16 h in the presence of Shield- 1 and doxycycline. The kinase- dead FLAG- DYRK1A (K188R) didnot increase in the presence of DD- FLAG-DYRK1A, supporting the conclusion in (a).Representative data from the triplicate experiments is shown.
(c) p- Ser97 is susceptible to dephosphorylation in HEK293 cells. The HEK293 cells were treated with the indicated concentration of calyculin A, okadaic acid, and cantharidic acid in the presence of doxycycline for 8 h. The total cell lysates were subjected to immunoprecipitation using antibody against FLAG- tag. The immuno- precipitated FLAG- DYRK1A was detected using antibodies against p- Ser97 and FLAG- tag. […]
with cantharidic acid increased the p- Ser97 signal. In contrast, the treatment with calyculin A […]
which may indicate that calyculin A and okadaic acid inhibited dephosphorylation of other sites […]
phosphatases inhibited by these compounds have not been completely identified. Phosphatase(s) inhibited by cantharidic acid may play a role in dephosphorylation of p -Ser97 in the cells. […]
antibody- conjugated beads. […] Each protein was detected with the corresponding antibodies against p- Ser97 or FLAG. […]
(e) The band intensities in ( d) were quantified. […]

[16] = tested on: DYRK1A; experiment: Rescue of Xenopus laevis embryos injected with DYRK1A mRNA; format: in vivo; conditions: 2.5 μM
Source text: (§2) Uninjected embryos were used as controls. Development of the embryos was allowed to proceed to stage 40 in the dark. Representative images are shown. […] The results are the means±s.e.m. of triplicate experiments (n=55). (c) RT–PCR analysis of the neural marker genes in the head regions of the embryos at stage 25. Each of the marker genes indicates a specific region: NCAM for the pan-neural region, Brain Factor-1 (BF-1) for the forebrain, Pax-6 and Rx-1 for the eye, Otx-2 for the fore-midbrain, Engrailed-2 (En-2) for the mid-hindbrain and Krox-20 for the hindbrain. Ornithine decarboxylase (ODC) is an internal control.
(§3) DYRK1A and DYRK1B mRNA, which were synthesized from linearized vectors with the mMessage mMachine Kit (Life Technologies), were injected into two dorsal blastomeres at the eight-cell-stage for RT–PCR analysis and observation of the embryo phenotypes. […] The head regions of the injected embryos were dissected at the neural stage (stage 25) and the total RNA was isolated using TRIzol (Life Technologies). cDNA synthesis was carried out using Moloney murine leukaemia virus reverse transcriptase (Life Technologies). The sequences of the primer pairs were as follows[51][52]: NCAM, 5′-[…]-3′ and 5′-[…]-3′; Brain factor 1 (BF-1), 5′-[…]-3′ and 5′-[…]-3′; Pax-6, 5′-[…]-3′ and 5′-[…]-3′; Rx1, 5′-[…]-3′ and 5′-[…]-3′; Otx-2, 5′-[…]-3′ and 5′-[…]-3′; En-2, 5′-[…]-3′ and 5′-[…]-3′′; Krox-20, 5′-[…]-3′ and 5′-[…]-3′; ornithine decarboxylase (ODC), 5′-[…]-3′ and 5′-[…]-3′. No randomization was used, and no blinding was done.

[17] = tested on: DYRK1B; experiment: Rescue of Xenopus laevis embryos injected with DYRK1B mRNA; format: in vivo; conditions: 2.5 μM
Source text: as §2, §3

T2 sequence (Q92630 whole entry): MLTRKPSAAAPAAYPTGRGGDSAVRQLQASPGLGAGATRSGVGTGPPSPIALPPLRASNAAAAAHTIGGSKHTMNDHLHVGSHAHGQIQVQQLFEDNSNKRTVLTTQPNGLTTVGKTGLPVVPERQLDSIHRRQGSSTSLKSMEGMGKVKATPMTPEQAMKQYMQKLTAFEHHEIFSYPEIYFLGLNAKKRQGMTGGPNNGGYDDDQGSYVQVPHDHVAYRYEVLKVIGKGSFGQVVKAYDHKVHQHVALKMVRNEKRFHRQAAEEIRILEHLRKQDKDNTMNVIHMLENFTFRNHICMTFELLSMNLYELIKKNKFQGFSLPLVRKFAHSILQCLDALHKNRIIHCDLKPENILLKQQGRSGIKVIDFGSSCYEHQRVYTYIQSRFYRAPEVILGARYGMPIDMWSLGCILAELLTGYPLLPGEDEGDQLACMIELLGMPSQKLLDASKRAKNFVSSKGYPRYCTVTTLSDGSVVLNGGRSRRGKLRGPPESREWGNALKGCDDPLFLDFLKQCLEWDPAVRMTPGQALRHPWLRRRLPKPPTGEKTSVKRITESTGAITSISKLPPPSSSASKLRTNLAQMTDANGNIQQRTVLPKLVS
T4 sequence (Q9Y463 whole entry): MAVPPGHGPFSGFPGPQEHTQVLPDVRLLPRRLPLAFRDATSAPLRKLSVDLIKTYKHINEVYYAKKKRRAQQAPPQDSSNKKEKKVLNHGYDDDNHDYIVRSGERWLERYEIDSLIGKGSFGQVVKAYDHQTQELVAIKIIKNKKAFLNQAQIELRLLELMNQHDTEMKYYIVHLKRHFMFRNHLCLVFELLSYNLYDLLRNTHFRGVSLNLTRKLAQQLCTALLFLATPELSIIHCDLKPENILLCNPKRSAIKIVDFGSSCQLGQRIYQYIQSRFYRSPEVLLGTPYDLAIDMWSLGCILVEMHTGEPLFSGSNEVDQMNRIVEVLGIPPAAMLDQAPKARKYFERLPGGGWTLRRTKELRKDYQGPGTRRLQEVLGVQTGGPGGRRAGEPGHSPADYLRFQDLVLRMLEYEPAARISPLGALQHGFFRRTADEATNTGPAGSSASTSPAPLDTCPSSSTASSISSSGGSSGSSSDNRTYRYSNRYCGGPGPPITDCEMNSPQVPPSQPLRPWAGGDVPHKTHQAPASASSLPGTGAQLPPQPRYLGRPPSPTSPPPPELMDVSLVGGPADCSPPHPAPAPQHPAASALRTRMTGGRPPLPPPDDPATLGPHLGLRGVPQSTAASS

**Q.** Which “TAU phosphorylation in Tc 2” value ([1]; 10 μM, compound added after accumulation of mature DYRK1A, HEK293) does the source give for CCN1/C(=C/C(C)=O)Sc2ccc(O)cc21 [INDY] here?
**A.** suppressed

**Q.** What about the “TAU phosphorylation in Tc 1” value ([1]; 10 μM, compound added before doxycycline induction, HEK293) of the same compound?
**A.** suppressed

**Q.** And the IC50 [2]?
**A.** 27.7 nM

**Q.** And the “interaction between DYRK1A and CDC37-nanoKAZ” value [3]?
**A.** weakened

**Q.** Which “inhibition of the transitional intermediate of Drosophila DYRK2” value [4] does the source give for CC(C)[C@H](CO)Nc1nc(Nc2cccc(Cl)c2)c2ncn(C(C)C)c2n1 [Purvalanol A] here?
**A.** inhibited

**Q.** What about the “inhibition of the mature kinase (Drosophila DYRK2)” value [5] of the same compound?
**A.** inhibited by both

**Q.** With CCOc1cc(/C=C2\SC(=S)NC2=O)ccc1O [RD0392] as the compound, how does the IC50 [6] read?
**A.** 325 nM

**Q.** What about the IC50 [7] of the same compound?
**A.** 53.3 nM

**Q.** And the “TAU phosphorylation in HEK293 cells” value ([1]; Supplementary Fig. 2b)?
**A.** suppresses

**Q.** And the IC50 [2]?
**A.** 45.6 nM

**Q.** What about the IC50 ([8]; IC50, Ser97 autophosphorylation) of the same compound?
**A.** 205 nM

**Q.** What about the IC50 ([8]; IC50, tyrosine phosphorylation) of the same compound?
**A.** 514 nM

**Q.** And the “amount of FLAG-DYRK1A (destabilization)” value [9]?
**A.** did not decrease

**Q.** What about the Ki [10] of the same compound?
**A.** 132 nM

**Q.** And the IC50 ([10]; IC50, in vitro kinase activity of recombinant DYRK1A, Fig. 1f, n=4)?
**A.** 60.2 nM

**Q.** What about the IC50 ([10]; IC50, kinase activity of recombinant DYRK1A, Supplementary Fig. 13d, n=3) of the same compound?
**A.** 25.6 nM

**Q.** What about the “signal from phosphorylated tyrosine in in vitro translation” value [11] of the same compound?
**A.** no significant effects

**Q.** And the “Ser97 autophosphorylation in in vitro translation” value ([11]; compound added prior to transcription)?
**A.** suppressed

**Q.** And the “substrate phosphorylation by DYRK1A produced in PURExpress” value [12]?
**A.** inhibited

**Q.** What about the IC50 [13] of the same compound?
**A.** 813 nM

**Q.** And the “interaction between DYRK1A and CDC37-nanoKAZ” value [14]?
**A.** weakened

**Q.** Which “inhibition of the mature kinase (Drosophila DYRK2)” value [5] does the source give for Brc1c(Br)c(Br)c2[nH]nnc2c1Br [TBB, 4,5,6,7-tetrabromo-1H-benzotriazole] here?
**A.** inhibited by both

**Q.** For COC[C@@H]([C@H](O)[C@H](O)C(=O)NCC[C@H](C)c1nc(/C=C/C[C@@H]2O[C@]3(C[C@@H](O)[C@@H]2C)O[C@H]([C@H](C[C@H](O)[C@H](C)[C@H](O)[C@H](C)/C=C(C)/C(C)=C/C=C/C(C)=C\C#N)OC)[C@H](OP(=O)(O)O)C3(C)C)co1)N(C)C [calyculin A], which “p-Ser97 signal in FLAG-DYRK1A” value [15] is on record?
**A.** did not increase

**Q.** With CC1(C(=O)O)C2CCC(O2)C1(C)C(=O)O (stereo not shown) [cantharidic acid] as the compound, how does the “p-Ser97 signal in FLAG-DYRK1A” value [15] read?
**A.** increased

**Q.** For C=C1[C@@H](O)[C@@H]2O[C@]3(CC[C@H](/C=C/[C@@H](C)[C@@H]4CC(C)=C[C@@]5(O[C@H](C[C@@](C)(O)C(=O)O)CC[C@H]5O)O4)O3)CC[C@H]2O[C@@H]1[C@@H](O)C[C@H](C)[C@H]1O[C@@]2(CCCCO2)CC[C@H]1C [okadaic acid], which “p-Ser97 signal in FLAG-DYRK1A” value [15] is on record?
**A.** did not increase

**Q.** Which “rescue of embryos injected with DYRK1A mRNA (small eyes)” value ([16]; Fig. 9b) does the source give for CCN1/C(=C/C(C)=O)Sc2ccc(OC(C)=O)cc21 [proINDY] here?
**A.** almost completely rescued

**Q.** What about the “expression of neural marker genes in DYRK1A-overexpressing embryos” value ([16]; RT-PCR, stage 25 head regions) of the same compound?
**A.** increased

**Q.** What about the “developmental malformation induced by DYRK1A” value ([16]; stage 40 tadpoles) of the same compound?
**A.** repressed

**Q.** What about the “tadpoles developed normally when injected with DYRK1B mRNA” value ([17]; Fig. 9b) of the same compound?
**A.** 89.1%

**Q.** And the “expression of neural marker genes in DYRK1B-overexpressing embryos” value ([17]; RT-PCR, stage 25 head regions)?
**A.** increased

**Q.** And the “developmental malformation induced by DYRK1B” value ([17]; stage 40 tadpoles)?
**A.** repressed
